In US4462941A, “Dynorphin amide analogs” (The Regents of the University of California, priority 1982, dated 1984):
Where no end group is shown, it is not given here.

Tests used:
[1] = test system: morphine tolerant animals; experiment: Tail-flick analgesia, morphine s.c. with or without peptide i.c.v., morphine tolerant animals; format: in vivo; settings: tolerant mice
Protocol: (§1) Male simonesen ICR mice (Gilroy, CA) weighing between 20-25 g were housed for at least one day prior to experimentation, and used within 5 days. Each mouse was used only once.
(§2) Analgesia was measured by the tail-flick method of D'Amour and Smith, J. Pharmac. Exp. Ther., 72, pp. 74-79 (1941), incorporated herein by reference, as modified by Tulunay and Takemori, J. Pharmac. Exp. Ther., 190, pp. 395-400 (1974), incorporated herein by reference. […] Nonresponding animals were removed from the heat stimulus when reaction times exceeded 10 sec. to avoid the tail damage.
(§3) Drugs were injected 30 min. prior to testing, unless otherwise indicated.
The animals were separated into two groups. […] Exp. Ther., 167, pp. 1-8 (1969), incorporated herein by reference.
(§4) The ED50 values, their 95% confidence limits and significance of the potency ratio between two ED50 values were determined by the method of Litchfield and Wilcoxon, J. Pharmac. Exp. Ther., 96: 99-113 (1949), incorporated herein by reference.

mouse vas deferens = settings: read-out: IC50 inhibiting the twitch of the mouse vas deferens
mice = experiment: Analgesic activity of the peptide by itself (mouse tail-flick)
Protocol: as §2, §3

[2] = compared with dynorphin(1-13)
[3] = test system: morphine tolerant animals; experiment: Tail-flick analgesia, β-endorphin i.c.v. with or without dynorphin(1-13) i.c.v., morphine tolerant animals; format: in vivo; settings: tolerant mice
Excerpt: as §1
The animals were separated into two groups. The one group was morphine tolerant (e.g., addicted); the other group was naive (e.g., not addicted). […] Exp. Ther., 167, pp. 1-8 (1969), incorporated herein by reference.
as §4

In the case of `CN1CC[C@]23c4c5ccc(O)c4O[C@H]2[C@@H](O)C=C[C@H]3[C@H]1C5.O=S(=O)(O)O` [Morphine, morphine sulfate], the “Analgesia (%)” value ([1]; morphine 60 mg/kg s.c. alone) is reported as 40% and the “Analgesia (%)” value ([1]; morphine 80 mg/kg s.c. alone) is reported as 90%.

With `CC[C@H](C)[C@H](NC(=O)[C@H](CCCNC(=N)N)NC(=O)[C@H](CCCNC(=N)N)NC(=O)[C@H](CC(C)C)NC(=O)[C@H](Cc1ccccc1)NC(=O)CNC(=O)CNC(=O)[C@@H](N)Cc1ccc(O)cc1)C(=O)N[C@@H](CCCNC(=N)N)C(=O)N1CCC[C@H]1C(=O)N[C@@H](CCCCN)C(=O)N[C@@H](CC(C)C)C(=O)N[C@@H](CCCCN)C(=O)O` [dynorphin(1-13)] the IC50 (mouse vas deferens) was 3.9 nM.

For “YGGFLRRIRP-NH2 [dynorphin(1-10) amide, Dynorphin(1-10)-NH2]”, the “behavior at huge doses” value (mice) was “tends to produce convulsions”, the “rate of metabolism by the host” value [2] was “less quickly metabolized” and the IC50 (mouse vas deferens) was 0.24 nM.

For β-endorphin, the “Analgesia (%)” value ([3]; β-endorphin 1 μg/mouse i.c.v. alone) was 10%, the “Analgesia (%)” value ([3]; β-endorphin 2 μg/mouse i.c.v. alone) was 40% and the “Analgesia (%)” value ([3]; β-endorphin 6 μg/mouse i.c.v. alone) was 100%. For the same compound, the “ED50 of β-endorphin” value ([3]; β-endorphin i.c.v. alone) was “about 2.25 μg/mouse”.
